Reference: PMC4744035, “In Vivo, In Vitro, and In Silico Characterization of Peptoids as Antimicrobial Agents” (PLoS ONE, 2016)
In brackets after ≈: the same amount, converted by molar mass. Like-named read-outs stand apart in the source and are kept apart here. Square brackets hold non-standard residues; d marks the D form. Ends that are not written are not given here. Peptide text beside a SMILES is read from it. Nspe = C[C@H](NCC(=O)O)c1ccccc1; Nphe = O=C(O)CNCc1ccccc1; Nlys = NCCCCNCC(=O)O

Key:
S. aureus ATCC25923 = assay: microbe, parasite or virus in culture
Summary of the method: (§1)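 Modified broth microdilution in Mueller Hinton medium in polypropylene plates; test agents serially diluted in 0.01% acetic acid with 0.2% BSA at 10-fold final concentration.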

[1] = tested on: P. aeruginosa H1027 (MDR); assay: microbe, parasite or virus in culture
Summary of the method: as §1

P. aeruginosa 9 (MDR) = assay: microbe, parasite or virus in culture
Summary of the method: as §1

E. coli 64771 (ESBL) = assay: microbe, parasite or virus in culture
Summary of the method: as §1

[2] = tested on: K. pneumonia 63575 (ESBL); assay: microbe, parasite or virus in culture
Summary of the method: as §1

P. maltophilia ATCC13637 = assay: microbe, parasite or virus in culture
Summary of the method: as §1

[3] = tested on: K. pneumonia 61962 (ESBL); assay: microbe, parasite or virus in culture
Summary of the method: as §1

E. faecium mic80 (VRE) = assay: microbe, parasite or virus in culture
Summary of the method: as §1

[4] = tested on: P. aeruginosa H1030 (MDR); assay: microbe, parasite or virus in culture; conditions: P. aeruginosa H1030 (MDR)
Summary of the method: as §1

[5] = tested on: P. aeruginosa H103 (wild type); assay: microbe, parasite or virus in culture
Summary of the method: as §1

S. aureus C623 (MRSA) = assay: microbe, parasite or virus in culture
Summary of the method: as §1

E. coli 63103 (ESBL) = assay: microbe, parasite or virus in culture
Summary of the method: as §1

[6] = tested on: E. cloacae 218R Class C β-lactamase; assay: microbe, parasite or virus in culture
Summary of the method: as §1

E. faecalis ATCC29212 = assay: microbe, parasite or virus in culture
Summary of the method: as §1

P. aeruginosa 213 (MDR) = assay: microbe, parasite or virus in culture
Summary of the method: as §1

P. aeruginosa 198 (MDR) = assay: microbe, parasite or virus in culture
Summary of the method: as §1

E. faecium T62764 (VRE) = assay: microbe, parasite or virus in culture
Summary of the method: as §1

[7] = tested on: P. aeruginosa LES400 (MDR); assay: microbe, parasite or virus in culture
Summary of the method: as §1

E. faecalis F43559 (VRE) = assay: microbe, parasite or virus in culture
Summary of the method: as §1

E. faecalis W61950 (VRE) = assay: microbe, parasite or virus in culture
Summary of the method: as §1

NIH 3T3 cells = assay: Metabolic activity, MTS assay; assay type: cell-based, mouse
Summary of the method: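 Mouse NIH 3T3 fibroblast monolayers, about 5000 cells per well, washed and exposed to serially diluted peptoids in Hank's balanced salt solution. Metabolic activity read by MTS; average of six replicate trials.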

B. subtilis ATCC 6633 = assay type: cell-based
Summary of the method: (§2)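 MICs determined by 2:1 serial broth microdilution in cation-adjusted Mueller-Hinton broth per CLSI M7-A6, using inoculum at 1 x 10^6 CFU/mL mixed 1:1 with peptoid solution. Three independent replicates, each with two parallel trials.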

E. coli ATCC 35218 = assay type: cell-based
Summary of the method: as §2

erythrocytes = assay: Hemolytic activity (HD10/HD50); assay type: cell-based
Description: Table 1 Characteristics of antimicrobial peptoids, screened for activity against B. subtilis and E. coli bacterial strains. | column: HD10 / HD50

LPS (P. aeruginosa) = assay: Dansyl polymyxin B (DPX) displacement assay, LPS binding; conditions: DPX bound to P. aeruginosa LPS
Method: The Dansyl polymyxin B (DPX) displacement assay was carried out as described earlier. In brief, the fluorescence of DPX (Invitrogen) bound to LPS (P. aeruginosa) was measured by using a Luminescence spectrometer LS 50B (Perkin Elmer) with excitation and emission-wavelengths of 340 nm and 485 nm, respectively. A predetermined amount of DPX, resulting in 90% saturation of LPS, was added to 1 mL of 3 μg/mL of purified LPS. Small aliquots (5 μL of 1 μg/mL) of test compounds were added under constant stirring in the cuvette, and the displacement of DPX was measured for 30–60 seconds as a decrease in fluorescence. The process was repeated until maximum displacement was reached.
The ability of other cationic molecules to displace DPX molecules bound to LPS (monitored by reduction in fluorescence) assesses their relative ability to bind to LPS [33, 34]. While the highly cationic MSI-78 (+10 charge) displaced 100% of bound DPX (equivalent to that of polymyxin B), peptoid 1 and MX-226 displaced 71% and 73% of bound DPX, respectively. […] A second parameter characterizing the LPS/polycation interaction is the I50, which is defined as the concentration of a polycation that displaces 50% of LPS-bound DPX. The I50 is inversely related to the relative affinity of each molecule for binding sites on LPS.

[8] = tested on: 20 bacterial strains (13 Gram-negative, 7 Gram-positive); conditions: out of the 20 pathogens tested
Method: The MICs of test agents were measured using a modified broth micro-dilution method in Difco Mueller Hinton medium, on a panel of bacterial pathogens that were both susceptible and resistant to common antibiotics (S1 File). Briefly, serial dilutions were performed in 0.01% acetic acid containing 0.2% bovine serum albumin at 10-fold the desired final concentration. Ten μL of the 10-fold concentrated test reagents were added to each well of a 96-well polypropylene microtitre plate containing 90 μL of Mueller Hinton media per well. Bacteria were added to the plate from an overnight culture at a final concentration of 2–7 x 10^5 CFU/mL and incubated overnight at 37°C. The MIC is defined as the concentration at which no growth was observed.
Screening of peptoid antimicrobial activity against a panel of multidrug resistant superbugs was done according to the protocol described in the manuscript. The bacterial strains used in this panel included; P. aeruginosa PAO1 strain H103 [1], P. maltophilia ATCC#13637, S. aureus ATCC#25923 [1], E. faecalis ATCC#29212 [2], and E. cloacae 218R, constitutively expressing Class C chromosomal β-lactamase, were from the Hancock lab strains collection. An MRSA clinical isolate was kindly provided by Anthony Chow (Vancouver General Hospital, Vancouver, Canada). Two Klebsiella pneumoniae and two E. coli clinical isolates expressing extended spectrum β-lactamases (ESBL) were kindly provided by George Zhanel (Health Sciences Centre, Winnipeg, Canada). Vancomycin-resistant clinical isolates of Enterococcus faecalis and E. faecium were obtained from Ana M. Paccagnella (BC Centre for Disease Control, Vancouver, Canada). Three clinical isolates (#9, #198 and #213) of multi-drug resistant P. aeruginosa, were kindly provided by Carlos Kiffer (University of São Paulo, Brazil). […] Three P. aeruginosa clinical isolates of the Liverpool epidemic strain (LES) (H1027, H1030 and LES400) were all kindly provided by Craig Winstanley (University of Liverpool, UK). […] All tested bacterial strains were categorized as biohazard level 2 pathogens.

C[C@@H](c1ccccc1)N(CC(=O)N(CC(=O)N(CCCCN)CC(=O)N(CC(=O)N(CC(=O)N(CCCCN)CC(=O)N(CC(=O)N(CC(=O)N(CCCCN)CC(=O)N(CC(=O)N(CC(N)=O)Cc1ccccc1)Cc1ccccc1)Cc1ccccc1)Cc1ccccc1)Cc1ccccc1)Cc1ccccc1)Cc1ccccc1)C(=O)CNCCCCN [Peptoid 1ach-Nspe2, H-(NLys-Nspe-Npm)- (NLys-Npm-Npm)3-NH2] (H-[Nlys][Nspe][Nphe][Nlys][Nphe][Nphe][Nlys][Nphe][Nphe][Nlys][Nphe][Nphe]-NH2)
MIC (S. aureus ATCC25923; ATCC25923): 4 mg/L (≈ 2.32 µM) | MIC ([1]; H1027 (MDR)): 2 mg/L (≈ 1.16 µM) | MIC (P. aeruginosa 9 (MDR); 9 (MDR)): 64 mg/L (≈ 37.2 µM) | MIC (E. coli 64771 (ESBL); 64771 (ESBL)): 8 mg/L (≈ 4.65 µM) | MIC [2]: 32 mg/L (≈ 18.6 µM) | MIC (P. maltophilia ATCC13637; ATCC13637): 2 mg/L (≈ 1.16 µM) | MIC [3]: 64 mg/L (≈ 37.2 µM) | MIC (E. faecium mic80 (VRE); mic80 (VRE)): 4 mg/L (≈ 2.32 µM) | MIC [4]: 32 mg/L (≈ 18.6 µM) | MIC ([5]; H103 (wild type)): 4 mg/L (≈ 2.32 µM) | MIC (S. aureus C623 (MRSA); C623): 4 mg/L (≈ 2.32 µM) | MIC (E. coli 63103 (ESBL); 63103 (ESBL)): 16 mg/L (≈ 9.3 µM) | MIC ([6]; 218R Class C β-lactamase): 16 mg/L (≈ 9.3 µM) | MIC (E. faecalis ATCC29212; ATCC29212): 16 mg/L (≈ 9.3 µM) | MIC (P. aeruginosa 213 (MDR); 213 (MDR)): 8 mg/L (≈ 4.65 µM) | MIC (P. aeruginosa 198 (MDR); 198 (MDR)): 8 mg/L (≈ 4.65 µM) | MIC (E. faecium T62764 (VRE); T62764 (VRE)): 2 mg/L (≈ 1.16 µM) | MIC ([7]; LES400 (MDR)): 4 mg/L (≈ 2.32 µM) | MIC (E. faecalis F43559 (VRE); F43559 (VRE)): 16 mg/L (≈ 9.3 µM) | MIC (E. faecalis W61950 (VRE); W61950 (VRE)): 32 mg/L (≈ 18.6 µM) | ID50 (inhibitory dose, metabolic activity) (NIH 3T3 cells): 11 µM | MIC B. subtilis (B. subtilis ATCC 6633): 0.78 µM (≈ 1.34 µg/mL) | MIC E. coli (E. coli ATCC 35218): 6.3 µM (≈ 10.8 µg/mL) | HD10 (hemolytic activity) (erythrocytes): 160 | HD50 (hemolytic activity) (erythrocytes): > 200

H-(NLys-Npm-Npm)4-NH2 [Peptoid 1ach]
MIC (S. aureus ATCC25923; S. aureus ATCC25923): 4 mg/L | MIC ([1]; P. aeruginosa H1027 (MDR)): 2 mg/L | MIC (P. aeruginosa 9 (MDR); P. aeruginosa 9 (MDR)): 64 mg/L | MIC (E. coli 64771 (ESBL); E. coli 64771 (ESBL)): 8 mg/L | MIC ([2]; K. pneumonia 63575 (ESBL)): 64 mg/L | MIC (P. maltophilia ATCC13637; P. maltophilia ATCC13637): 4 mg/L | MIC ([3]; K. pneumonia 61962 (ESBL)): 128 mg/L | MIC (E. faecium mic80 (VRE); E. faecium mic80 (VRE)): 4 mg/L | MIC [4]: 64 mg/L | MIC ([5]; P. aeruginosa H103 (wild type)): 4 mg/L | MIC (S. aureus C623 (MRSA); S. aureus C623 (MRSA)): 4 mg/L | MIC (E. coli 63103 (ESBL); E. coli 63103 (ESBL)): 16 mg/L | MIC ([6]; E. cloacae 218R Class C β-lactamase): 16 mg/L | MIC (E. faecalis ATCC29212; E. faecalis ATCC29212): 8 mg/L | MIC (P. aeruginosa 213 (MDR); P. aeruginosa 213 (MDR)): 8 mg/L | MIC (P. aeruginosa 198 (MDR); P. aeruginosa 198 (MDR)): 8 mg/L | MIC (E. faecium T62764 (VRE); E. faecium T62764 (VRE)): 2 mg/L | MIC ([7]; P. aeruginosa LES400 (MDR)): 4 mg/L | MIC (E. faecalis F43559 (VRE); E. faecalis F43559 (VRE)): 32 mg/L | MIC (E. faecalis W61950 (VRE); E. faecalis W61950 (VRE)): 32 mg/L | ID50 (inhibitory dose, metabolic activity) (NIH 3T3 cells; NIH 3T3 cells, MTS assay, 3 hours): 16 µM | MIC B. subtilis (B. subtilis ATCC 6633): 1.6 µM | MIC E. coli (E. coli ATCC 35218): 12.5 µM | HD10 (hemolytic activity) (erythrocytes): 183 | HD50 (hemolytic activity) (erythrocytes): > 200

ILRWPWWPWRRK-NH2 (C-terminus assumed) [MX-226, Omiganan, reference compound]
bound DPX displaced (maximum displacement) (LPS (P. aeruginosa)): 73% | IC50 (LPS (P. aeruginosa); read-out: I50 (concentration that displaces 50% of LPS-bound DPX)): 5 µM | MIC (S. aureus ATCC25923; ATCC25923): 16 mg/L | MIC ([1]; H1027 (MDR)): 64 mg/L | MIC (E. coli 64771 (ESBL); 64771 (ESBL)): 64 mg/L | MIC (P. maltophilia ATCC13637; ATCC13637): 32 mg/L | MIC (E. faecium mic80 (VRE); mic80 (VRE)): 64 mg/L | MIC ([5]; H103 (wild type)): 32 mg/L | MIC (S. aureus C623 (MRSA); C623): 32 mg/L | MIC (E. coli 63103 (ESBL); 63103 (ESBL)): 64 mg/L | MIC ([6]; 218R Class C β-lactamase): 16 mg/L | MIC (P. aeruginosa 213 (MDR); 213 (MDR)): 64 mg/L | number of pathogens with MIC ≤ 8 μg/mL [8]: none
